Test results: paper PMC8878317, “Chemogenomics identifies acetyl-coenzyme A synthetase as a target for malaria treatment and prevention” (Cell Chemical Biology, 2022)

Tested on: P. falciparum 3D7 parasites
Assay: Metabolomic profiling of compound-treated parasites (LC/MS);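 for Metabolite data: 3-Phosphoglycerate: Log2 fold change in abundance versus untreated parasite controls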;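 for Metabolite data: Myo-Inositol: Log2 fold change in abundance versus untreated parasite controls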;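 for Metabolite data: N-Carbamoyl-L-Aspartate: Log2 fold change in abundance versus untreated parasite controls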;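 for Metabolite data: Nicotinate: Log2 fold change in abundance versus untreated parasite controls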
Type: cell-based
Design: Metabolite data: dTMP / Metabolite data: GMP / Metabolite data: S-Adenosyl-L-Homocysteine / Metabolite data: 1_3-Bisphosphoglyceric acid: scale not given here
Protocol: The metabolite extraction protocol was performed as described elsewhere ([Allman et al., 2016]). Briefly, 1 mL of trophozoites that were magnetically purified to a concentration of 1×10^8 parasites/mL were placed into wells with 4 mL of RPMI 1640 media and allowed to recover for one hour. […] The culture was incubated for another 2.5 hr. The culture was centrifuged and quenched with 90% methanol containing 0.25 μM ^13C,^15N-Labeled-Aspartate, vortexed, and centrifuged. The supernatant was transferred to a new tube and dried for storage. Prior to analysis, the samples were resuspended to a final concentration of 1×10^8 parasites/mL in a solution of 3% methanol:water containing 1 μM chlorpropamide as an internal standard.
The chromatographic conditions used in this experiment were performed with slight modifications from previous methods ([Zhang et al., 2018]). Briefly, a Waters XSelect HSS C18 column was used on a gradient reverse-phase chromatographic configuration with 97:3 water:methanol with 10 mM tributylamine and 15 mM acetic acid (solvent A) and methanol (solvent B). A Thermo-Scientific Exactive Plus Orbitrap mass spectrometer was operated in negative mode for the detection of the metabolites. Peak picking and integration were performed using El-Maven LC/MS data processing software. The peak data were then exported to Excel where metabolite areas were normalized to the internal standards, blank subtracted, and averaged by condition.

In the case of `O=C(NNC(=O)c1csnn1)c1ccc(Cl)cc1` [MMV084978-1], the “Metabolite data: 1_3-Bisphosphoglyceric acid” value is reported as 0.1496, the “Metabolite data: 2_3-Diphosphoglyceric acid” value is reported as 0.1496 and the “Metabolite data: 3-Phosphoglycerate” value is reported as 0.2498. For the same molecule, the “Metabolite data: 4-Aminobutyrate” value was -0.07219, the “Metabolite data: 4-Phosphopantothenate” value was -0.08759 and the “Metabolite data: 4-phosphopantetheine” value was -0.1079. The “Metabolite data: 5-aminopentanoic acid” value was 0, the “Metabolite data: 5-phosphoribosyl-1-pyrophosphate” value was 0 and the “Metabolite data: 6-Phospho-D-Gluconate” value was -0.01315. The “Metabolite data: ADP-D-Glucose” value was 0.08201, the “Metabolite data: Acetyl-CoA” value was -3.327 and the “Metabolite data: Acetyllysine” value was -0.5311. For the same molecule, the “Metabolite data: Aconitate” value was -0.1935, the “Metabolite data: CDP” value was 1.05 and the “Metabolite data: CDP-Ethanolamine” value was 0.1123. For the same molecule, the “Metabolite data: CDP-choline” value was -0.1263, the “Metabolite data: CMP” value was 1.555 and the “Metabolite data: CTP” value was 0.5959. The “Metabolite data: Citrate/Isocitrate” value was -0.25, the “Metabolite data: Cyclic-AMP” value was -0.2917 and the “Metabolite data: Dihydroorotate” value was -1.467. The “Metabolite data: FAD” value was 0.02838, the “Metabolite data: FMN” value was 0.1073 and the “Metabolite data: Fructose-1,6-Bisphosphate” value was -0.1507. The “Metabolite data: Fumarate” value was -0.2504, the “Metabolite data: GDP” value was 0.1753 and the “Metabolite data: GMP” value was 0.5608. The “Metabolite data: GTP” value was 0.3192, the “Metabolite data: Glucose-1/6-Phosphate” value was 0 and the “Metabolite data: Glutathione Disulfide” value was -0.0421. The “Metabolite data: Hexose” value was 0.4607, the “Metabolite data: Hydroxyisocaproic acid” value was 0 and the “Metabolite data: Indole” value was -0.02938. For the same molecule, the “Metabolite data: Ketoleucine” value was 0, the “Metabolite data: L-arginino-succinate” value was -0.1583 and the “Metabolite data: Lactate” value was -0.4518. The “Metabolite data: Malate” value was -0.3092, the “Metabolite data: Myo-Inositol” value was -0.662 and the “Metabolite data: N-Acetyl-Glutamate” value was -1.234. For the same molecule, the “Metabolite data: N-Acetyl-L-Alanine” value was -0.1942, the “Metabolite data: N-Acetyl-L-Ornithine” value was -0.6079 and the “Metabolite data: N-Carbamoyl-L-Aspartate” value was -1.86. For the same molecule, the “Metabolite data: NAD+” value was -0.05754, the “Metabolite data: NADH” value was -0.03997 and the “Metabolite data: NADP+” value was -0.01332. The “Metabolite data: NADPH” value was -0.02772, the “Metabolite data: Nicotinate” value was -0.2079 and the “Metabolite data: Octulose 8/1-Phosphate” value was 0.04337. For the same molecule, the “Metabolite data: Orotate” value was -1.48, the “Metabolite data: PD” value was -0.5076 and the “Metabolite data: PE” value was -0.5728. The “Metabolite data: PEEK” value was -0.4082, the “Metabolite data: Phenol Red” value was -0.09162 and the “Metabolite data: Pyroglutamic acid” value was -0.04117. For the same molecule, the “Metabolite data: S-Adenosyl-L-Homocysteine” value was -0.1413, the “Metabolite data: S-methyl-5'-thioadenosine” value was -0.2314 and the “Metabolite data: SD” value was -0.5901. The “Metabolite data: Sedoheptulose Bisphosphate” value was -0.08586, the “Metabolite data: UDP” value was 0.6291 and the “Metabolite data: UDP-D-Glucose” value was 0.0869. The “Metabolite data: UDP-D-Glucuronate” value was 0.1009, the “Metabolite data: UDP-N-Acetyl-Glucosamine” value was -0.1998 and the “Metabolite data: UMP” value was 1.083. The “Metabolite data: UTP” value was 0.2924, the “Metabolite data: a-ketoglutarate” value was -0.2708 and the “Metabolite data: acetyl-aspartate” value was -0.01834. The “Metabolite data: arginine” value was 0.1881, the “Metabolite data: asparagine” value was 0.1209 and the “Metabolite data: aspartate” value was 0.4643. For the same molecule, the “Metabolite data: biotin” value was -0.04446, the “Metabolite data: chlorpropamide” value was -1.60E-16 and the “Metabolite data: coenzyme A” value was -0.006892. The “Metabolite data: dAMP” value was 0.6117, the “Metabolite data: dATP” value was 0.1596 and the “Metabolite data: dCDP” value was -0.02418. For the same molecule, the “Metabolite data: dCMP” value was 0.3076, the “Metabolite data: dCTP” value was 0.1432 and the “Metabolite data: dGDP/ADP” value was -0.04263. The “Metabolite data: dGMP/AMP” value was -0.1821, the “Metabolite data: dGTP/ATP” value was 0.1752 and the “Metabolite data: dTDP” value was 0.5413. The “Metabolite data: dTMP” value was 0.4313, the “Metabolite data: dTTP” value was 0.1959 and the “Metabolite data: folate” value was -0.04496. The “Metabolite data: glucono-lactone” value was -0.03642, the “Metabolite data: glutamate” value was -0.04994 and the “Metabolite data: glutamine” value was 0.01906. For the same molecule, the “Metabolite data: glutathione” value was -0.07032, the “Metabolite data: histidine” value was -0.03336 and the “Metabolite data: hydroxyproline/Aminolevulinate” value was -0.01874. The “Metabolite data: isoleucine” value was 0.003243, the “Metabolite data: leucine” value was -0.0173 and the “Metabolite data: maleic acid” value was -0.282. The “Metabolite data: methionine” value was 0.1423, the “Metabolite data: nicotinamide mononucleotide” value was -0.4705 and the “Metabolite data: orotidine-5'-phosphate” value was -2.397.
For `C[C@H]1Cc2c([nH]c3cc(Cl)c(F)cc23)[C@@]2(N1)C(=O)Nc1ccc(Cl)cc12` [NITD609], the “Metabolite data: 1_3-Bisphosphoglyceric acid” value was 0, the “Metabolite data: 2_3-Diphosphoglyceric acid” value was -2.22 and the “Metabolite data: 3-Phosphoglycerate” value was 0.01. For the same molecule, the “Metabolite data: 4-Aminobutyrate” value was -0.54, the “Metabolite data: 4-Phosphopantothenate” value was -0.15 and the “Metabolite data: 4-phosphopantetheine” value was 0. For the same molecule, the “Metabolite data: 5-aminopentanoic acid” value was 0, the “Metabolite data: 5-phosphoribosyl-1-pyrophosphate” value was 0 and the “Metabolite data: 6-Phospho-D-Gluconate” value was -0.28. The “Metabolite data: ADP-D-Glucose” value was 0.02, the “Metabolite data: Acetyl-CoA” value was -0.54 and the “Metabolite data: Acetyllysine” value was -1.93. The “Metabolite data: Aconitate” value was 0.62, the “Metabolite data: CDP” value was -0.29 and the “Metabolite data: CDP-Ethanolamine” value was -0.28. For the same molecule, the “Metabolite data: CDP-choline” value was 0, the “Metabolite data: CMP” value was 1.24 and the “Metabolite data: CTP” value was -1.27. The “Metabolite data: Citrate/Isocitrate” value was 0.19, the “Metabolite data: Cyclic-AMP” value was -1.16 and the “Metabolite data: Dihydroorotate” value was -2.01. The “Metabolite data: FAD” value was -1.31, the “Metabolite data: FMN” value was -1 and the “Metabolite data: Fructose-1,6-Bisphosphate” value was -1.13. For the same molecule, the “Metabolite data: Fumarate” value was -0.06, the “Metabolite data: GDP” value was -2.58 and the “Metabolite data: GMP” value was -2.42. For the same molecule, the “Metabolite data: GTP” value was -1.11, the “Metabolite data: Glucose-1/6-Phosphate” value was -0.9 and the “Metabolite data: Glutathione Disulfide” value was -0.38. The “Metabolite data: Hexose” value was 0, the “Metabolite data: Hydroxyisocaproic acid” value was 0 and the “Metabolite data: Indole” value was 0.17. The “Metabolite data: Ketoleucine” value was 0, the “Metabolite data: L-arginino-succinate” value was 0 and the “Metabolite data: Lactate” value was -1.31. The “Metabolite data: Malate” value was -0.06, the “Metabolite data: Myo-Inositol” value was -3.27 and the “Metabolite data: N-Acetyl-Glutamate” value was -0.27. For the same molecule, the “Metabolite data: N-Acetyl-L-Alanine” value was -1.42, the “Metabolite data: N-Acetyl-L-Ornithine” value was -1.27 and the “Metabolite data: N-Carbamoyl-L-Aspartate” value was -4.57. The “Metabolite data: NAD+” value was -0.4, the “Metabolite data: NADH” value was 0.03 and the “Metabolite data: NADP+” value was -0.12. The “Metabolite data: NADPH” value was 0.35, the “Metabolite data: Nicotinate” value was 0.78 and the “Metabolite data: Octulose 8/1-Phosphate” value was -1.92. For the same molecule, the “Metabolite data: Orotate” value was 0.91, the “Metabolite data: PD” value was 0 and the “Metabolite data: PE” value was 0. The “Metabolite data: PEEK” value was 0, the “Metabolite data: Phenol Red” value was 0 and the “Metabolite data: Pyroglutamic acid” value was -0.06. For the same molecule, the “Metabolite data: S-Adenosyl-L-Homocysteine” value was -1.64, the “Metabolite data: S-methyl-5'-thioadenosine” value was -0.53 and the “Metabolite data: SD” value was 0. For the same molecule, the “Metabolite data: Sedoheptulose Bisphosphate” value was -1.34, the “Metabolite data: UDP” value was -0.96 and the “Metabolite data: UDP-D-Glucose” value was -0.2. The “Metabolite data: UDP-D-Glucuronate” value was -0.36, the “Metabolite data: UDP-N-Acetyl-Glucosamine” value was 0.03 and the “Metabolite data: UMP” value was -0.38. The “Metabolite data: UTP” value was -2.05, the “Metabolite data: a-ketoglutarate” value was 0.5 and the “Metabolite data: acetyl-aspartate” value was 0. For the same molecule, the “Metabolite data: arginine” value was 0, the “Metabolite data: asparagine” value was 0 and the “Metabolite data: aspartate” value was 0. The “Metabolite data: biotin” value was 0, the “Metabolite data: chlorpropamide” value was 0 and the “Metabolite data: coenzyme A” value was 0. For the same molecule, the “Metabolite data: dAMP” value was 2.56, the “Metabolite data: dATP” value was -0.71 and the “Metabolite data: dCDP” value was 1.68. The “Metabolite data: dCMP” value was 1.5, the “Metabolite data: dCTP” value was 0.45 and the “Metabolite data: dGDP/ADP” value was 0. The “Metabolite data: dGMP/AMP” value was -1.14, the “Metabolite data: dGTP/ATP” value was 0 and the “Metabolite data: dTDP” value was 2.45. For the same molecule, the “Metabolite data: dTMP” value was 3.96, the “Metabolite data: dTTP” value was 1.4 and the “Metabolite data: folate” value was 0. For the same molecule, the “Metabolite data: glucono-lactone” value was 0, the “Metabolite data: glutamate” value was 0 and the “Metabolite data: glutamine” value was 0. The “Metabolite data: glutathione” value was 0, the “Metabolite data: histidine” value was 0 and the “Metabolite data: hydroxyproline/Aminolevulinate” value was 0. The “Metabolite data: isoleucine” value was 0, the “Metabolite data: leucine” value was 0 and the “Metabolite data: maleic acid” value was 0. The “Metabolite data: methionine” value was 0, the “Metabolite data: nicotinamide mononucleotide” value was 0 and the “Metabolite data: orotidine-5'-phosphate” value was 0.
